How the values were obtained:
MAPK (ERK 1/2) = assay: Western blot of MAPK (pERK 1/2) in OSM-stimulated pig articular chondrocytes; format: cell-based
Description: For standard western blot, treated and non-treated cells were lysed in RIPA Lysis and Extraction Buffer (Pierce, Rockford, IL) containing protease inhibitors (Pierce) followed by sonication with a 15-second pulse at a power output of 2 using the VirSonic 100 (SP Industries Company, Warminster, PA). Protein concentrations were determined by BCA protein assay (Pierce). Proteins were resolved with SDS-PAGE utilizing 4-15% Mini-PROTEAN TGX Precast Gels and transferred to Trans-Blot Turbo Transfer Packs with a 0.2-μm pore-size nitrocellulose membrane. The SDS-PAGE running buffer, 4-15% Mini-PROTEAN TGX Precast Gels, Trans-Blot Turbo Transfer Packs with a 0.2-μm pore-size nitrocellulose membrane was purchased from Biorad (Hercules, CA). Nitrocellulose membranes were blocked in 5% nonfat milk in 0.05% (v/v) Tween 20 (PBST) (Corning, Manassas, VA). Membranes were then incubated with primary antibodies p-gp130 Y814 (Evseenko lab, AbClonal), p-AKT (cat #4060, Cell Signaling), p-ERK 1/2 (cat #9106, Cell Signaling), p-Y416-SRC (cat #1246F, Novus Biologicals), p-gp130 (cat #1453R, Bioss USA) and p-NFκBp65 (cat #8242, Cell Signaling), and/or YAP1 (cat #4912, Cell Signaling). Histone H3 (cat #9515, Cell Signaling) was used as loading control. […] Quantification of blots was performed using ImageJ 1.44 followed by Prism9 for analysis.

pNF-κB p65 = assay: Western blot of pNF-κB p65 in pig articular chondrocytes; format: cell-based; details: pig articular chondrocytes, OSM, 24 hours
Description: For standard western blot, treated and non-treated cells were lysed in RIPA Lysis and Extraction Buffer (Pierce, Rockford, IL) containing protease inhibitors (Pierce) followed by sonication with a 15-second pulse at a power output of 2 using the VirSonic 100 (SP Industries Company, Warminster, PA). Protein concentrations were determined by BCA protein assay (Pierce). Proteins were resolved with SDS-PAGE utilizing 4-15% Mini-PROTEAN TGX Precast Gels and transferred to Trans-Blot Turbo Transfer Packs with a 0.2-μm pore-size nitrocellulose membrane. The SDS-PAGE running buffer, 4-15% Mini-PROTEAN TGX Precast Gels, Trans-Blot Turbo Transfer Packs with a 0.2-μm pore-size nitrocellulose membrane was purchased from Biorad (Hercules, CA). Nitrocellulose membranes were blocked in 5% nonfat milk in 0.05% (v/v) Tween 20 (PBST) (Corning, Manassas, VA). Membranes were then incubated with primary antibodies p-gp130 Y814 (Evseenko lab, AbClonal), p-AKT (cat #4060, Cell Signaling), p-ERK 1/2 (cat #9106, Cell Signaling), p-Y416-SRC (cat #1246F, Novus Biologicals), p-gp130 (cat #1453R, Bioss USA) and p-NFκBp65 (cat #8242, Cell Signaling), and/or YAP1 (cat #4912, Cell Signaling). Histone H3 (cat #9515, Cell Signaling) was used as loading control. After washing in PBS containing 0.05% (v/v) Tween 20 (PBST), membranes were incubated with rabbit (cat #31460, Thermo Scientific) or mouse IgG-HRP (cat #31430, Thermo Scientific) secondary antibodies. After washing, membranes were developed with the Clarity Western ECL Blotting Substrate (Hercules, CA). Quantification of blots was performed using ImageJ 1.44 followed by Prism9 for analysis.

## Cc1ccc(-c2csc(NC(=O)c3ccccn3)n2)cc1 [Peptide R805]
MAPK (ERK 1/2)
  MAPK (pERK 1/2) activation induced by OSM: markedly suppressed
pNF-κB p65
  protein levels of pNF-κB p65 after OSM stimulation: markedly suppressed
